ChEMBL document CHEMBL1149930, “3-Hydroxy-19-nor-17-pregna-1,3,5(10)-triene-21,17-carbolactone as inhibitor of 17-hydroxysteroid dehydrogenase type 2” (Bioorg Med Chem Lett, 1994)

Key:
[1] = target: T1, 17-beta-hydroxysteroid dehydrogenase type 2 (Homo sapiens, UniProt P37059); experiment: Inhibitory activity against human placenta 17-beta-hydroxysteroid dehydrogenase type 2 (17-beta-HSD type 2)
T1 sequence (P37059 whole entry): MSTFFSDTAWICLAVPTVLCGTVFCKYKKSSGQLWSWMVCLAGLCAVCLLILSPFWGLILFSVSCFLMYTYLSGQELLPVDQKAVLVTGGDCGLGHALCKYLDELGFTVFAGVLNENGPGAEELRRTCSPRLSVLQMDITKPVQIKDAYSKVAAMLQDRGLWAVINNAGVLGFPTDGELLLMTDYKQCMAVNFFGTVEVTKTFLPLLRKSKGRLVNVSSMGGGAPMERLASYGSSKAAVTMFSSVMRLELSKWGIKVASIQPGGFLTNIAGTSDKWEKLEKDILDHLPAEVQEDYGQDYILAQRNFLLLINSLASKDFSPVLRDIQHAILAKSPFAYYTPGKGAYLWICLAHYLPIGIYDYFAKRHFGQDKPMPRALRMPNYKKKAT

[2] = target: T1, 17-beta-hydroxysteroid dehydrogenase type 2; experiment: Inhibitory constant against human placenta 17-beta-hydroxysteroid dehydrogenase type 2 (17-beta-HSD type 2)

| SMILES | IC50 [1] | Ki [2] |
| --- | --- | --- |
| C[C@]12CC[C@@H]3c4ccc(O)cc4CC[C@H]3[C@@H]1CC[C@@]21CCC(=O)O1 | 270 nM | 250 nM |
| C[C@]12CCC3C4=CCC(=O)C=C4CCC3C1CC[C@@]21CCC(=O)O1 (stereo partly drawn) | 1410 nM |  |
